Results on 1 molecule are retold here after patent US9765061B2, “Trail enhancers for the selective killing of cancer cells” (The Scripps Research Institute, priority 2013, dated 2017).

The test system of series [1] is sXBP1 (UPR). In words: RT-PCR assay of spliced XBP1 mRNA (sXBP1) in macrophages. The series is classed as cell-based, mouse. The conditions noted are these: FIG. 1D and 1E. The source says: FIG. 1: C12 induces the UPR in mammalian cells. (A and B). Comparison of the macrophage responsiveness to P. aeruginosa (P.a.), S. typhimurium (S.t), and S. aureus (S.a.). RT-PCR assay of XBP1 (A) and Western blot analysis (B) of p38, its phosphorylated form (p-p38) as well as phosphorylated forms of PERK (p-PERK) and eIF2α (p-eIF2α) in cell extracts after treatment with bacteria are shown. (C) Macrophages were stimulated with P. aeruginosa wild type (wt) or lasI mutant (ΔlasI), and cell extracts (total RNA or total protein) were prepared and analyzed as in (A and B). […] (F) Total RNA was prepared from lung of mice after inoculation of vehicle (-) or (C12) and analyzed in (D). […]
Among key biochemical signatures of the multicomponent ER stress pathway, known as the unfolded protein response (UPR), are the phosphorylation of the α-subunit of eukaryotic translation initiation factor-2 (eIF2α) and activation of the transcription factor XBP1/Hac1 (X-box binding protein-1 in metazoans and homologous to ATF/CREB in yeast, respectively) ^11. […] To initiate our studies, we exposed bone marrow-derived macrophages (BMDM) to these bacteria, and macrophage responsiveness was analyzed for biochemical markers of the UPR and the phosphorylation of the mitogen-activated protein kinase p38, as a common marker of TLR pathways. […]

Series [2] deals with sXBP1 (UPR). In words: sXBP1 generation in mouse lung after administration. The series is classed as in vivo. The conditions noted are these: administration into mouse lung, FIG. 1F. An excerpt: FIG. 1: C12 induces the UPR in mammalian cells. (A and B). Comparison of the macrophage responsiveness to P. aeruginosa (P.a.), S. typhimurium (S.t), and S. aureus (S.a.). RT-PCR assay of XBP1 (A) and Western blot analysis (B) of p38, its phosphorylated form (p-p38) as well as phosphorylated forms of PERK (p-PERK) and eIF2α (p-eIF2α) in cell extracts after treatment with bacteria are shown. (C) Macrophages were stimulated with P. aeruginosa wild type (wt) or lasI mutant (ΔlasI), and cell extracts (total RNA or total protein) were prepared and analyzed as in (A and B). (D and E) RT-PCR assay of XBP1 or actin in total RNA prepared from macrophages after treatment with compound (C12), i.e., the (S)-enantiomer, or with the (R)-enantiomer (C12R), or the hydrolysis product (C12h) are shown. (F) Total RNA was prepared from lung of mice after inoculation of vehicle (-) or (C12) and analyzed in (D). (G) Chemical structures of compounds (C12), (C12R) and (C12h). Compound (C12) is the (S)-enaniiomer of the compound of formula: […]
Importantly, the similar requirements in the structural integrity of the lactone ring motif were also evident in response to other natural stereoisomer of the AHL family (Table 1). […]

The test system of series [3] is normal human bronchial epithelial cells (NHBE). In words: PARP cleavage in normal human bronchial epithelial cells. The conditions noted are these: FIG. 3D. The series is classed as cell-based. The method, then:
FIG. 3: Sensitivity of cancerous and non-cancerous cells to apoptosis induced by TNF, C12 or a combination of C12 and TNF. Cells were incubated with TNF, (C12) or a combination of TNF and (C12) as indicated, and the cleavage of PARP (an apoptotic marker) was determined by Western blot. (A and B) Breast cancer MCF-7 cells transfected with control vector (Vector) and vector expressing Bcl-2 or CLARP. (C) HeLa cell line. (D) Normal human bronchial epithelial cells (NHBE).
Similar experiments were conducted by using normal human bronchial epithelial cells and HeLa cell line as an example of transformed cells. We observed that both HeLa and normal cells were resistant to pro-apoptotic effects of TNF (FIG. 3C and 3D). […] In addition, two stimuli—C12 and TNF—work synergistically against cancerous cells, although normal cells stay intact.
Cancer and normal cell culture. Lung cancer cell line A549 and colon cancer cell line HT29 were purchased from ATCC. Breast cancer cell line MDA-MB-468 was received from J. C. Reed (The Burnham Institute, La Jolla, Calif.). […]
Antibodies and Western blot analysis. […] Cellular extracts were prepared and analyzed by Western blot assay as previously described.^E3

Structures are written as SMILES.

As to `CCCCCCCCCC(=O)CC(=O)N[C@H]1CCOC1=O` [Compound 1, N-(3-oxo-dodecanoyl) homoserine lactone], the “induction of sXBP1 / activation of the UPR” value in the series with sXBP1 (UPR) [1] is “time- and dose-dependent induction of sXBP1”. Also, the “generation of sXBP1 in lung” value in the series with sXBP1 (UPR) [2] is on record as “resulted in the generation of sXBP1”. In addition, in series [3], the “apoptosis (PARP cleavage), compound alone and in combination with TNF” value is on record as “showed resistance”.
